Measured values: US20120077735A1, “PROPHYLACTIC AGENT FOR RENAL FAILURE” (priority 2007, published 2012)

How the values were obtained:
male Wistar rats [1] = test: Test 2: rat renal pathologic state (glomerular lesions, renal artery wall at the hilum and small- and mid-sized artery wall thickening) in rats given L-NAME; type: in vivo; settings: drinking water with L-NAME 1 g/L plus IPP 0.3 g/L or Enalapril 0.5 mg/L, eight weeks; for With pathologic state / Without pathologic state: pathologic state = score not less than 1 in all three items
Procedure: The tripeptide Ile Pro Pro (IPP) was also tested for renal pathologic state, in order to evaluate its effect to suppress kidney glomerular disease and renal arteriosclerosis.
The test was carried out using three groups of male Wistar rats of seven weeks old (Japan SLC, Inc.), each of which group consist of 9 to 12 rats. After habituation breeding for a week, drinking water with L-NAME (manufactured by Sigma) being dissolved at a concentration of 1 g/L; drinking water with L-NAME and IPP being dissolved at a concentration of 1 g/L and 0.3 g/L respectively; drinking water with L-NAME and angiotensin converting enzyme (ACE) inhibitor, Enalapril at a concentration of 1 g/L and 0.5 mg/L respectively, were supplied ad libitum for eight weeks. The dose of Enalapril was determined such that its activity to inhibit ACE was equivalent to the activity of IPP to inhibit ACE.
The rats were sacrificed by exsanguination under diethylether anesthesia. The kidney was enucleated and then fixed with 10% neutral buffered formalin solution. Tissue samples were prepared from the fixed kidney by excising in parallel with the minor axis such that the tip of renal papilla was included. The specimen were embedded in paraffin and cut into thin sections with a thickness of 2.0 to 2.5 μm using a microtome. Two to five sections per rat were prepared. The thin sliced sections were subjected to hematoxylin eosin staining or periodic acid methenamine silver staining (PAM staining). In accordance with a method by Foglieni et al. (Chiara Foglieni, et al., “Protective effect of EDTA preadministration on renal ischemia” BMC Nephrology 2006, 7:5, [online], Mar. 15, 2006, BioMed Central Ltd, http://www.biomedcentral.com/bmcnephrol/), a histopathological examination was, with keeping the name of each sample concealed, carried out by a pathologist who was not involved in the test.
Under a microscopic observation, the glomerulus that atrophic lesions, deterioration of the glomerulus, glomerulosclerosis, alteration of Bowman's capsule or the like was observed was defined as the glomerulus with lesions, in accordance with the definition of the glomerular lesions described in a book by Enomoto et al. (edited by Makoto Enomoto, Yuzo Hayashi, and Hisako Tanaka, “Pathological tissues of experimental animals”, Softscience, pages 380-396). The atrophic lesion refers to conditions where the size ratio between the glomerulus and Bowman's capsule is altered due to glomerular atrophy. The deterioration of the glomerulus refers to conditions where the blood capillary cavity of the glomerulus is disappeared and glomerular functions are lost. The glomerulosclerosis refers to conditions where increased mesangial matrix was observed without accompanying hyperplasia of collagen fiber. The alteration of Bowman's capsule refers to conditions where hypertrophy of epithelial cells and uptake of lipid droplets and/or protein particles are observed. In one whole section, the frequency of occurrence of these glomerular lesions was scored from 0 to 3, and a score was determined for each individual rat.
Score 0: A case where one or two glomerular lesions owing to physiologic alterations were observed.
Score 1: A case where one or two focal regions in the glomerulus were observed, which regions were a limited and small range.
Score 2: A case where two to four focal regions in the glomerulus were observed, which regions were a middle sized range.
The focal regions herein indicate that a plural of lesions are, on the basis of pathological findings, observed in a certain area in one whole section.
The thickening of the renal artery wall at the hilum existing in the renal medulla and the thickening of the small and middle artery wall existing in the renal cortex were also evaluated by a tissue pathological test in the same manner as the observation of the glomerular lesions. […]

male Wistar rats [2] = test: Test 1: thickening of the small- and mid-sized renal artery wall in rats given L-NAME; type: in vivo, rat; settings: drinking water with L-NAME 1 g/L plus VPP 0.3 g/L or Enalapril 0.5 mg/L, ad libitum for eight weeks; compared with L-NAME alone; FIG. 1
Procedure: (§1) In order to evaluate the effect of the tripeptide Val Pro Pro (VPP) to suppress kidney glomerular disease and renal arteriosclerosis, a test on the frequency of occurrence of renal glomerular lesions and the degree of thickening of the small and middle renal artrey wall was carried out.
(§2) The test was carried out using three groups of male Wistar rats of seven weeks old (Japan SLC, Inc.), each of which group consist of 9 to 12 rats. […] The dose of Enalapril was determined such that its activity to inhibit ACE was equivalent to VPP's. […]
The thickening of the small-, and mid -sized artery wall existing in the renal cortex was also evaluated by a tissue pathological test in the same manner as the observation of the glomerular lesions. […] The thickness of the small- and mid-sized artery wall was scored from 0 to 3 as described below and a score for each individual rat was determined. The determined score for each individual rat was subjected to statistical analysis and a score for each group was determined. […]

male Wistar rats [3] = test: Test 1: frequency of occurrence of renal glomerular lesions in rats given L-NAME; type: in vivo, rat; settings: drinking water with L-NAME 1 g/L plus VPP 0.3 g/L or Enalapril 0.5 mg/L, ad libitum for eight weeks; compared with L-NAME alone; FIG. 2
Procedure: as §1, §2
Under a microscopic observation, the glomerulus that atrophic lesions, deterioration of the glomerulus, glomerulosclerosis, alteration of Bowman's capsule or the like was observed was defined as the glomerulus with lesions, in accordance with the definition of the glomerular lesions described in a book by Enomoto et al. (edited by Makoto Enomoto, Yuzo Hayashi, and Hisako Tanaka, “Pathological tissues of experimental animals”, Softscience, pages 380-396). […] In one whole section, the frequency of occurrence of these glomerular lesions was scored from 0 to 3, and a score was determined for each individual rat. The thus determined score for each individual rat was subjected to statistical analysis and a score for each group was determined. […]

Compound: Ile Pro Pro [IPP]
- onset of the pathologic state of the glomerulus and the renal artery (result in words) (male Wistar rats [1]): suppressed the onset of the pathologic state
- With pathologic state (male Wistar rats [1]): 0 rats
- Without pathologic state (male Wistar rats [1]): 9 rats

Compound: CCOC(=O)[C@H](CCc1ccccc1)N[C@@H](C)C(=O)N1CCC[C@H]1C(=O)O [Enalapril]
- onset of the pathologic state of the glomerulus and the renal artery (result in words) (male Wistar rats [1]): did not exhibit such an effect
- With pathologic state (male Wistar rats [1]): 2 rats
- Without pathologic state (male Wistar rats [1]): 7 rats
- degree of thickening of the small- and mid-sized artery wall (score 0 to 3) (male Wistar rats [2]): did not show the suppressive effect
- frequency of occurrence of the glomerular lesions (score 0 to 3) (male Wistar rats [3]): did not show the suppressive effect

Compound: Val Pro Pro [VPP]
- degree of thickening of the small- and mid-sized artery wall (score 0 to 3) (male Wistar rats [2]): decrease in the degree of thickening
- frequency of occurrence of the glomerular lesions (score 0 to 3) (male Wistar rats [3]): suppression of the frequency of occurrence of the glomerular lesions
